Assay results from patent US7423015B1, “Antihelminthic drugs as a treatment for hyperproliferative diseases” (Board of Regents, The University of Texas System, priority 2001, dated 2008).

Assays:
p53 mRNA = assay: Northern blot analysis in H460 cells; format: cell-based, human; settings: 0.05 μg/ml, 24 hr
Experimental: (§1) Total RNA was isolated from the subconfluent cultures using the guanidinium thisocyanate method (Lacey, 1988). After this 20 μg of the RNA was electrophoresed in a denaturing 1.2% agarose/morpholinepropanesulfonic acid (MOPS)-formaldehyde gel, transferred onto a nitrocellulose membrane, and hybridized to a ^32P-radiolabeled p53 cDNA probe, as described elsewhere (Lubiga and Prichard, 1990). The ^32P-labeled probes were generated using random primers (>8×10^8 cpm/μg). Blots were washed at 65° C. in 2× standard saline citrate (SSC) for 30 min and then washed twice at 60° C. in 0.1% sodium dodecyl sulfate (SDS) and 0.1×SSC. The cDNA probes used were 1.2-kb human p53 cDNA and an 800-bp fragment of human p21 cDNA.
(§2) Cell extracts were prepared from H460 cells exposed to 0.05 μg/ml FZ or MZ for various durations (1 to 24 hr). The effect of FZ and MZ on the nuclear accumulation of p53 appeared to be gradual and was not significant within the first hour of exposure. […] The appearance of p53 in response to drug treatment also coincided with the initiation of apoptosis, which was detectable by 24 hr, as well as shown earlier by TdT FACS analysis. […] Total RNA was extracted and […] was used for the analysis. p53 protein was detected by immunoblot analysis.

p21/WAF1 transcript = assay: Northern blot analysis in H460 cells; format: cell-based, human; settings: at the time the p53 level peaked
Experimental: as §1, §2

H460 = assay: Proliferation assay, 50% growth inhibitory concentration; format: cell-based; settings: Homo sapiens, NCI-H460, 24 h; H460, p53 positive; inhibit growth by 50% after 1 day of exposure
Experimental: (§3) All cell lines were grown in RPMI 1640 medium supplemented with 5% fetal bovine serum and 5% CO2. All experiments were done when the cells were 70% confluent. For cell growth measurements, 5×10^4 cells were plated in each well of six-well plates. Control and BZ-treated (0.05 μg/ml) cells were trypsinized and counted using a hemocytometer. Experiments were done in triplicate and the mean and standard deviation were determined by standard methods.
(§4) Studies to determine the IC50 for fenbendazole and mebendazole were performed on a panel of six different human cancer cell lines: two carrying the wild-type p53 gene and actively expressing the p53 protein, (H460 and A549); one marked by homozymes deletion of the p53 gene and lacking p53 gene expression (H358); two expressing mutant p53 (H322 and H596); and one in which wild-type p53 is inactivated by human papilloma virus E6 protein. […] A dose of 166 nM (˜[…]) was chosen for these studies because it had been shown previously that this concentration was sufficient to induce wild-type p53 after 24 h of treatment.

H596 = assay: as above; format: cell-based; settings: Homo sapiens, NCI-H596, 24 h; H596, p53 mutated; after 1 day of exposure
Experimental: as §3, §4

H322 = assay: as above; format: cell-based; settings: Homo sapiens, NCI-H322, 24 h; H322, p53 mutated; after 1 day of exposure
Experimental: as §3, §4

H358 = assay: as above; format: cell-based; settings: Homo sapiens, NCI-H358, 24 h; H358, p53 deleted; after 1 day of exposure
Experimental: as §3, §4

Saos-2 = assay: Cell viability, trypan blue cell count assay; format: cell-based; settings: Homo sapiens, Saos-2 (osteosarcoma, p53 deleted), 100% = untreated cells
H460 cells = assay: Induction of apoptosis in H460 (Hoechst 33342, TUNEL, TdT FACS); format: cell-based, human
Experimental: Cells were seeded onto chamber slides and treated with various reagents, after which cell monolayers were washed twice with ice-cold PBS (pH 7.4). Thereafter, cells were fixed for 5 min at 20° C. in 10% formalin. The washing step with PBS was then repeated once. To stain the nuclei, the cells were incubated for 10 min with 10 μg/ml of Hoechst 33342 and then washed with PBS. The coverslips with the stained cells were mounted in 80% glycerol in PBS containing 1 mg/ml P-phenylenediamine and examined with a Nikon epifluorescence microscope.
Apoptotic assay was done using M30 CytoDEATH apoptotic cell death assay kit (Boehringer Mannnheim). Cells were grown on chamber slides, control and benzimidazole treated cells were stained with Mouse monoclonal antibody (clone M30) as per manufacturer's instructions. […] Flow cytometry was carried out in a fluorescence-activated cell sorter (Epics Elite; Coulter, Inc., Hialeah, Fla.).
The inventors tested the effect of BZ treatment on the human NSCLC cell line H460. […] Chromatin condensation was noted under a fluorescence microscope at 24 h after treatment, by staining the nuclei with Hoechst 33342 fluorescent dye. […] Gross morphological changes associated with a loss of viability were observed by 24 hr post-treatment, whereas signs of apoptosis, detected by DNA staining and TUNEL assays, became apparent by 24 hr after drug treatment.

p53 protein = p53 protein stability, pulse-chase with cycloheximide in H460; format: cell-based, human
Experimental: Cells were treated with 0.05 μg/ml fenbendazole or mebendazole for 24 h. After this, control (mock-treated) and drug-treated H460 cells were incubated with 10 μg/ml cycloheximide in drug-free medium for different times and then processed to obtain total cell extracts. Finally, samples were denatured by boiling them in SDS-loading buffer (100 mM Tris, pH 6.8; 2% SDS; 0.1% bromphenol blue; 10% glycerol; 25 μM β-mercaptoethanol) and loaded onto a 10% SDS-polyacrylamide gel. Blots were probed with anti-p53 monoclonal antibody B p53-12 (Santa Cruz Biotechnology, Inc.) and anti-actin monoclonal antibody (Amersham). The immunocomplexes were detected using the Enhanced Chemiluminescence kit according to the manufacturer's directions as described above. The intensities of the bands were quantitated with a PhosphoImager using ImageQuant™ Software (Molecular Dynamics, Sunnyvale, Calif.).
H460 cells were treated with 0.05 μg/ml FZ for 24 hr, and then both untreated control and treated cells were washed with PBS and treated with 24 μg/ml cyclohexamide. After that, cells were harvested at different times. The total cell protein was extracted and analyzed on a 10% polyacrylamide-gel, followed by Western blot analysis using p53 and actin monoclonal antibodies. […]
Data from the pulse-chase experiments were quantitated with a PhosphoImager using ImageQuant™ software. […]

SiHa = assay: Cell viability, trypan blue cell count assay; format: cell-based; settings: Homo sapiens, SiHa (cervical, wild-type p53 inactivated by E6), 100% = untreated cells

With `COC(=O)Nc1nc2ccc(Sc3ccccc3)cc2[nH]1` [Fenbendazole, methy 5-(phenylthio)-2-benzimidazole-2-carbamate] the “p53 mRNA levels” value (p53 mRNA) was “no significant changes”, the “level of the p21/WAF1 transcript” value (p21/WAF1 transcript) was “significantly increased” and the IC50 (H460) was 152 nM. The IC50 (H596) was 643 nM, the IC50 (H322) was 816 nM and the IC50 (H358) was 654 nM. The viability at 0.05 µg/mL (Saos-2) was 76.5 ± 5.9%, the “apoptotic effect on H460 cells” value (H460 cells) was “apoptotic effect” and the “effect on half-life of the p53 protein” value (p53 protein) was “prolong the half-life”. The viability at 0.05 µg/mL (SiHa) was 94.5 ± 7.4%.
In the case of `COC(=O)Nc1nc2ccc(C(=O)c3ccccc3)cc2[nH]1` [Mebendazole, Methyl 5-benzoylbenzimidazole-2-carbamate], the “p53 mRNA levels” value (p53 mRNA) is reported as “no significant changes”, the “level of the p21/WAF1 transcript” value (p21/WAF1 transcript) is reported as “significantly increased” and the IC50 (H460) is reported as 106 nM. The IC50 (H596) was 601 nM, the IC50 (H322) was 871 nM and the IC50 (H358) was 893 nM. The viability at 0.05 µg/mL (Saos-2) was 65.4 ± 10.1%, the “apoptotic effect on H460 cells” value (H460 cells) was “apoptotic effect” and the “effect on half-life of the p53 protein” value (p53 protein) was “prolong the half-life”. For the same compound, the viability at 0.05 µg/mL (SiHa) was 91.3 ± 8.6%.
